According to patent publication US12029715B2, “Precursor compounds for providing retinoids of the vitamin A5 pathway and uses thereof” (UNIVERSITY OF DEBRECEN, priority 2015, dated 2024):
“Also recorded” adds a separate entry of the source. Values belong to the compound of their own block, whether it stands above or below them.

Key:
[1] = system: oligodendrocytes cell line 158N; assay: Metabolic conversion in mouse oligodendrocytes cell culture (LC-MS); format: in vitro ADME; settings: for 9CDHRA levels in cells after treatment: 10^−5M for 18 h; for ATROL levels in cells after treatment: 10^−6M
Procedure, shortened: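 Mouse 158N oligodendrocytes at 70–80% confluency were treated with retinoid precursors or esters, with ethanol as vehicle, at 10^−6 M in one variant and from a 10^−2 M ethanol solution in the other. Cells were harvested after 18 h under limited light. Metabolites were analysed by LC-MS.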

[2] = system: Rbp1−/−, Rxrγ−/− and WT mice; assay: Delayed non-match to place (DNMTP) working memory task in the T-maze; format: in vivo, mouse
Description: Behaviorally naïve groups of mice were tested in the DNMTP (delayed non-match to place) procedure in the T-maze according to a protocol previously described (Wietrzych et al., 2005), with modifications to facilitate pharmacological tests (Wietrzych-Schindler et al., 2011). Spontaneous alternation was evaluated in the Ymaze apparatus according to protocol described in detail below.
Specifically, in the present protocol, animals were first trained for 10 consecutive days with minimal inter-trial intervals (ITI) of about 15 sec, which was necessary to attain the criterion of 90% or more of correct choices during […] consecutive days (days 9-10). After this period ITI was increased semi-randomly by blocks of 3-6 min during 5 consecutive days (days 11-15 indicated) to determine “test ITI” for each animal, which was defined as the shortest ITI at which mice perform at chance level. From day 16 mice were tested using corresponding “test ITI” delays following vehicle injection on the day 16 (to test for the effect of vehicle alone) and following 9CDHROL (40 mg/kg) injection on day 17. Three mice were excluded from testing since their latency to choose the arm during the retention phase exceeded 3 min in more than one trial/day on three consecutive days (exclusion criterion). On the day 18 mice were again injected (IP) with 9CDHROL (40 mg/kg) and 9 hours later sacrificed for chemical analyses. Mice which received vehicle injections on three consecutive days were used as vehicle-treated controls for analyses of 9CDHROL metabolism. An additional group of 3 naïve mice was also injected with 9CDHROL (40 mg/kg) to test for 9CDHROL metabolism following acute treatment.
In this variant, animals were first trained for 9 consecutive days of with minimal inter-trial intervals (ITI) of about 15 sec, which was necessary to attain the criterion of 90% or more of correct choices during three consecutive days (days 7-9). After this period ITI was increased semi-randomly to 180, 360, 720 and for some WT mice also 1080 seconds so that each animal was tested 6 times with each interval during four consecutive days (days 10-13 indicated). From day 13 mice were tested only twice per week beginning with training session on day one (with minimal, 15 sec ITIs) and testing pharmacological treatments on the second day. Only one pharmacological treatment was tested every 7 days. To test pro-mnemonic activities of UVI2108 and (R)-9CDHRA inventors used a minimal ITI, at which mice performed at chance level (50%) and which was 6 min for the Rbp1−/− or Rxrγ−/− groups and 12 min for most WT mice with exception of two mice tested at 18 min. Four mice (two wild types and one of each knockout line), were excluded from testing since their latency to choose the arm during the retention phase exceeded 3 min in more than one trial/day on three consecutive days (exclusion criterion).
For behavioral analysis, 9CDHROL and 9CDHBC were dissolved in ethanol, and then mixed with sunflower oil, so that the final solution contained 3% ethanol. Vehicle treatments consisted of 3% ethanol solution in sunflower oil. For memory studies treatments with 9CDHRA were administered by intraperitoneal injections at volume/weight ratio 3 ml/kg at 7 am and 7 hours before the beginning of testing. For tests with animal model of chronic social defeat, different treatments were administered by intraperitoneal injections at volume/weight ratio 3 ml/kg at 10 mg/kg for each substance between 5-6 pm every second day of stress protocol immediately after the stress session starting from day 1 of the stress protocol.
(§1) Vehicle treatments consisted of 3% ethanol and 3% DMSO solution in sunflower oil. Treatments were administered by intraperitoneal injections at volume/weight ratio 3 ml/kg between 8-10 am and 5-6 h before the test as previously validated (Wietrzych-Schindler M, 2011).

[3] = system: Rbp1−/−, Rxrγ−/− and WT mice; assay: Forced swim test after acute treatment; format: in vivo, mouse; settings: for immobility (despair) in the forced swim test: acute i.p. treatment 5-6 h before the test
Description: (§2) The forced swim paradigm was carried out between 1 pm and 4 pm in a 3-litre glass beaker half-filled with water at 22-23° C. (the water depth was 17 cm). All mice were tested only once in this task. To this end, each mouse was lowered gently into the water and the time of immobility was scored during a 6-minute testing period. The mouse was judged immobile when it floated in an upright position and made only small movements to keep its head above the water. After 6 min, the mouse was taken out of the water, left to dry under a red light lamp and returned to its home cage. The immobility scores of each animal were used as an index of despair behavior.
as §1
as §2, with “paradigm (Dalvi and Lucki, 1999)” for “paradigm”, “2-litre” for “3-litre”

[4] = Rbp1−/− mice, ITI of 6 min, acute treatment, (R)-9CDHRA 1 or 2 mg/kg

9CDHRA levels in cells after treatment [1]: very strong increase
ATROL levels in cells after treatment [1]: a low conversion or induced increase
Structure (SMILES): CC(C=CC1=C(C)CCCC1(C)C)=CC=CC(C)CC(=O)O (stereo not drawn) [9CDHRA, 9-cis-13,14-dihydroretinoic acid]

Structure (SMILES): CC1=C(/C=C/C(C)=C\C=C\C(C)CCO)C(C)(C)CCC1 (stereo not drawn) [9CDHROL, 9-cis-13,14-dihydroretinol]
9CDHRA levels in cells after treatment [1]: strong increase
ATROL levels in cells after treatment [1]: a low conversion or induced increase
9CDHROL levels in cells after treatment ([1]; 10^−6 M, 18 hours): increases; also recorded: excellent/strongly
conversion to 9CDHRA ([1]; data not shown): excellent precursor
working memory performance in DNMTP task ([2]; wild type C57BL6N male mice, 40 mg/kg, 7-9 h after treatment, mean ITI of 13 min, 40 mg/kg): improved working memory performance; also recorded: significantly enhanced memory performance

Structure (SMILES): CC1=C(/C=C/C(C)=C\C=C\[C@H](C)CC(=O)O)C(C)(C)CCC1 [(R)-9CDHRA, (9Z,13R)-13,14-Dihydroretinoic Acid]
immobility (despair) in the forced swim test ([3]; Rbp1−/− mice): reduce despair behavior; also recorded: reduced in dose dependent manner immobility
dose attaining maximal effect on immobility in the forced swim test ([3]; Rbp1−/− mice, acute treatment): 1 mg/kg
immobility time in the forced swim test ([3]; Rxrγ−/− mice, 2 mg treatment): 120 ± 25 s
working memory performance in DNMTP task [2, 4]: reversed working memory deficits; also recorded: improved memory performance
correct choices in DNMTP task ([2]; Rxrγ−/− mice, ITI 6 min): 57±7 % of correct choices
correct choices in DNMTP task ([2]; WT mice, 2 mg/kg, ITI of 12 or 18 min): about 70 % of correct choices
working memory performance in DNMTP task ([2]; WT mice, ITI of 12 or 18 min): showed pro-mnemonic activity; also recorded: raised performance

Structure (SMILES): CC1(C)CCC(C)(C)c2cc(C3(c4ccc(C(=O)O)cc4)OCCO3)ccc21 [UVI2108, reference compound]
immobility (despair) in the forced swim test ([3]; Rbp1−/− mice): reduced significantly immobility time
working memory performance in DNMTP task [2, 4]: reversed memory deficits
working memory performance in DNMTP task ([2]; Rxrγ−/− mice, ITI of 6 min): remained ineffective
